Where a name gives a salt, the structure may show the parent alone. Read-outs that look alike come from different tables or passages of the source.
Columns and labels:
[1] = molecular target: Pim-1 (Homo sapiens (Human), UniProt P11309); assay: ADP-Glo Kinase Assay, Pim-1; type: biochemical; details: 1 μM compound; for inhibition at 1 µM: read-out: Pim-1 % INH (1 μM)
Method in brief: (§1)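 Buffer was MOPS 5 mM (pH 7.5) with MgCl2, EDTA and DTT; ATP set at apparent Km per kinase. Compounds were diluted in assay buffer to 1000 nM. Kinase-generated ADP was converted to luciferase signal and normalised to percent inhibition.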

[2] = molecular target: Pim-2 (Homo sapiens (Human), UniProt Q9P1W9); assay: ADP-Glo Kinase Assay, Pim-2; type: biochemical; details: 1 μM compound; for inhibition at 1 µM: read-out: Pim-2 % INH (1 μM)
Method in brief: as §1

[3] = molecular target: Pim-3 (Homo sapiens (Human), UniProt Q86V86); assay: ADP-Glo Kinase Assay, Pim-3; type: biochemical; details: 1 μM compound; for inhibition at 1 µM: read-out: Pim-3 % INH (1 μM)
Method in brief: as §1

[4] = molecular target: FLT3wt (Homo sapiens (Human), UniProt P36888); assay: ADP-Glo Kinase Assay, Flt3 wt; type: biochemical; details: 1 μM compound; for inhibition at 1 µM: read-out: Flt3wt % INH (1 μM)
Method in brief: as §1

[5] = molecular target: CDK2/E (Homo sapiens (Human), UniProt P24941); assay: ADP-Glo Kinase Assay, CDK2/E; type: biochemical; details: 1 μM compound; for inhibition at 1 µM: read-out: CDK2/E % INH (1 μM)
Method in brief: as §1

[6] = molecular target: DYRK1 (Homo sapiens (Human), UniProt Q13627); assay: ADP-Glo Kinase Assay, DYRK1; type: biochemical; details: 1 μM compound; for inhibition at 1 µM: read-out: DYRK1A % INH (1 μM)
Method in brief: as §1

[7] = system: MV4-11 cells; assay: Growth inhibition, MTS assay, MV4-11; type: cell-based, Human; details: MTS cell viability, read-out: MV4-11 ED50
[8] = system: Jeko-1 cells; assay: Growth inhibition, MTS assay, Jeko-1; type: cell-based, Human; details: 72 hours, MTS cell viability, read-out: Jeko-1 ED50
Description: (§2) The following cell lines, were obtained and used in tests as outlined below: • Human myelomonocytic, biphenotypic leukemia MV4-11 cells (harboring a Flt3-ITD mutation); • Human Acute Myeloid Leukemia MOLM16 cells; • Human Acute Myeloid Leukemia MOLM13 cells (harboring a Flt3-ITD mutation); • Human Myeloid Leukemia KG-1 cells; • Human erythroleukemia HEL92 cells; • Human mantle cell lymphoma Jeko-1 cells; • Human hepatocellular carcinoma HepG2 cells; and • Human colon adenocarcinoma SW-480 cells.
(§3) The assays were carried out according to the following protocol, which is described as an example for the MV4-11 cells:
(§4) Ten thousand MV4-11 cells were inoculated into each well of a 96-well microplate (manufactured by Corning Corp.) using Iscove's MDM medium (culture medium) containing 10% fetal calf serum (FCS). The same day, a dimethyl sulfoxide (DMSO) solution of each test compound prepared in a concentration of 10 mmol/L was further diluted with DMSO to the desired concentrations (0.1, 0.5, 1, 2.5, 5 and 10 micromol/L), and the diluted solution was added to each well. The individual wells were further cultured in 5% carbon dioxide at 37° C. for 72 hours. […] Briefly, 10 μl MTS (3-(4,5-Dimethyl-2-thiazolyl)-5-(carboxymethoxyphenyl)-2-(4-sulfophenyl)-2H-tetrazolium was added to each well, and culturing was performed in 5% carbon dioxide at 37° C. for 2 hours. After this incubation and using a microplate spectrophotometer (Synergy 2 multi-mode microplate reader (BioTek)), the absorbance of each well was measured at 490 nm. The value for cells not incubated with a test compound was designated as 100%. By comparing these values with the absorbance difference obtained at the well in which each test compound was added, the cell viability (% viability) after treatment with the test compound was calculated.

[9] = molecular target: hERG potassium channel (Homo sapiens (Human), UniProt Q12809); assay: hERG automated patch clamp assay (QPatch HT)
Experimental: The hERG (human ether-A-go-go-related gene) channel corresponds to an important anti-target for potential new drugs since its inhibition may lead to sudden death. In order to establish whether the compounds of the present invention act on hERG, the following experiment was carried out.
The in vitro effects of the compounds indicated in Table 5 on the hERG potassium channel current (a surrogate for Iκr, the rapidly activating, delayed rectifier cardiac potassium current) expressed in mammalian cells were evaluated at room temperature using the QPatch HT® (Sophion Bioscience A/S, Denmark), an automatic parallel patch clamp system. Each compound indicated in Table 5 was evaluated at 0.1, 1, 3, 10 and 30 μM with each concentration tested in a minimum of two cells (n≥2). The duration of exposure to each compound concentration was 3 minutes.

[10] = system: HEL92 cells; assay: Growth inhibition, MTS assay, HEL92; type: cell-based, Human; details: MTS cell viability, read-out: HEL92 ED50
[11] = system: HepG2 cells; assay: Growth inhibition, MTS assay, HepG2; type: cell-based, Human; details: MTS cell viability, read-out: HepG2 ED50
[12] = system: SW-480 cells; assay: Growth inhibition, MTS assay, SW-480; type: cell-based, Human; details: 72 hours, MTS cell viability, read-out: SW-480 ED50
[13] = system: MV4-11 xenograft; assay: MV4-11 xenograft in immunocompromised mice; type: in vivo; details: MV4-11 xenograft, oral
Description: Several compounds of the present invention have been studied in a xenograft in mice, an in vivo tumor transplantation model used to investigate the factors involved in malignant transformation, invasion and metastasis, as well as to examine response to therapy. For the purpose of acceptance of donor leukemic cells (MV4-11 or MOLM16 cells), immunocompromised mice were used, namely particularly severely compromised immunodeficient mice (NOD/scid, SCID/beige). When tumors developed size of approx. 50-200 mm^3, the compounds as indicated below in Tables 3 and 3a were administered orally every day for 2-3 weeks, in once a day (QD) or twice a day (BID) schedule. During the course of the experiment, the mice were monitored and the following two parameters were measured: the tumor growth inhibition (TGI) factor as a measure of therapeutic efficacy and the body weight change (ΔBW) factor as a measure of possible compound toxicity. The results are depicted in Tables 3 and 3a.
Next, compound 26A was evaluated in a xenograft study of acute myeloid leukemia (MV-4-11), alone or in a combinational treatment with Cytarabine in vivo (Table 3b; FIG. 6). Compound 26A was tested in two doses (50 and 25 mg/kg) and administered twice a day (BID); Cytarabine was administered at dose of 50 mg/kg three times in a week (TIW). During 15 days of compound administration dose-dependent anti-cancer activity of compound 26A (administered alone) was shown. Tumor growth inhibition reached −82% and −77%, respectively.

[14] = system: MOLM16 cells; assay: Growth inhibition, MTS assay, MOLM16; type: cell-based, Human; details: Homo sapiens, MOLM16, 72 h, MTS cell viability, read-out: MOLM 16 ED50
Description: as §2, §3, §4

Pim-2, sequence (Q9P1W9 whole entry): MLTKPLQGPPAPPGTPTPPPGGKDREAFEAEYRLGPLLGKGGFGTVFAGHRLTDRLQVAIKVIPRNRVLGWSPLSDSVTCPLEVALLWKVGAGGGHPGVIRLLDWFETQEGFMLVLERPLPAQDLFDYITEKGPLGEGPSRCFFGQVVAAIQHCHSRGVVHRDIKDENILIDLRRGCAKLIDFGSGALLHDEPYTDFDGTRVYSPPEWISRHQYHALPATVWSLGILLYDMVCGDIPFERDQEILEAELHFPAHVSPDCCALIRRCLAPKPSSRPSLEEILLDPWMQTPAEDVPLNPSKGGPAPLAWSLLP
Pim-1, sequence (P11309 whole entry): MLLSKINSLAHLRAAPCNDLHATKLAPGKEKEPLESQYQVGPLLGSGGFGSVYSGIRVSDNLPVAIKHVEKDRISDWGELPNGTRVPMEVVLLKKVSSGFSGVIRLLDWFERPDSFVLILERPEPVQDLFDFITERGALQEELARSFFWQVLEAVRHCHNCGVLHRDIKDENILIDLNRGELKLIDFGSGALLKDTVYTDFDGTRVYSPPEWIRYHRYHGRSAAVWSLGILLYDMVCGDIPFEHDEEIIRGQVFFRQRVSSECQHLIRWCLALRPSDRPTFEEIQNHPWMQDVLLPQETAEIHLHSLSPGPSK
FLT3wt, sequence (P36888 27-993): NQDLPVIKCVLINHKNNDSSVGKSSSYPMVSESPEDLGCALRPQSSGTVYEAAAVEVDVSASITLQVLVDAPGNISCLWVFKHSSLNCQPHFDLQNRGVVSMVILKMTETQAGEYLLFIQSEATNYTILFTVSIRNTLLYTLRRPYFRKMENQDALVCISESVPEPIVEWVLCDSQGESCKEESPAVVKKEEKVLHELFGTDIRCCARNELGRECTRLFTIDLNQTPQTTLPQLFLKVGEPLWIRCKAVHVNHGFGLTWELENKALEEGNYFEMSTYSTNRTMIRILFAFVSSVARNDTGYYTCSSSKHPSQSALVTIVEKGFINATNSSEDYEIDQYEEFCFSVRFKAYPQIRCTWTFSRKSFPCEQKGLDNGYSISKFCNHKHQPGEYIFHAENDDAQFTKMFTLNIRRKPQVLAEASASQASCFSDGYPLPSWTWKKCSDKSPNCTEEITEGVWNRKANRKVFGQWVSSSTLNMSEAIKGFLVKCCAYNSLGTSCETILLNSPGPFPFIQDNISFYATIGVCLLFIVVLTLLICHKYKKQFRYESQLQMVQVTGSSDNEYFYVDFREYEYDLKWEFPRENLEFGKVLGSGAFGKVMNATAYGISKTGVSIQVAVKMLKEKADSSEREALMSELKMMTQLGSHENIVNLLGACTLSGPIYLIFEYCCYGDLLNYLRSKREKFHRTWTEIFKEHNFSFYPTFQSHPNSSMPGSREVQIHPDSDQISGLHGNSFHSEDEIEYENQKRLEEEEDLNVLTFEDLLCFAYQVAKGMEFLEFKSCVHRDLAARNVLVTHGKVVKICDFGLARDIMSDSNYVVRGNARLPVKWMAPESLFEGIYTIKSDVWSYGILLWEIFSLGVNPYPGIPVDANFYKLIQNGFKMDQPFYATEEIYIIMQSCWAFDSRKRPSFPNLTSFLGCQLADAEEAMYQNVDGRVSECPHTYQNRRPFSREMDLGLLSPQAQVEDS
hERG potassium channel, sequence (Q12809 whole entry): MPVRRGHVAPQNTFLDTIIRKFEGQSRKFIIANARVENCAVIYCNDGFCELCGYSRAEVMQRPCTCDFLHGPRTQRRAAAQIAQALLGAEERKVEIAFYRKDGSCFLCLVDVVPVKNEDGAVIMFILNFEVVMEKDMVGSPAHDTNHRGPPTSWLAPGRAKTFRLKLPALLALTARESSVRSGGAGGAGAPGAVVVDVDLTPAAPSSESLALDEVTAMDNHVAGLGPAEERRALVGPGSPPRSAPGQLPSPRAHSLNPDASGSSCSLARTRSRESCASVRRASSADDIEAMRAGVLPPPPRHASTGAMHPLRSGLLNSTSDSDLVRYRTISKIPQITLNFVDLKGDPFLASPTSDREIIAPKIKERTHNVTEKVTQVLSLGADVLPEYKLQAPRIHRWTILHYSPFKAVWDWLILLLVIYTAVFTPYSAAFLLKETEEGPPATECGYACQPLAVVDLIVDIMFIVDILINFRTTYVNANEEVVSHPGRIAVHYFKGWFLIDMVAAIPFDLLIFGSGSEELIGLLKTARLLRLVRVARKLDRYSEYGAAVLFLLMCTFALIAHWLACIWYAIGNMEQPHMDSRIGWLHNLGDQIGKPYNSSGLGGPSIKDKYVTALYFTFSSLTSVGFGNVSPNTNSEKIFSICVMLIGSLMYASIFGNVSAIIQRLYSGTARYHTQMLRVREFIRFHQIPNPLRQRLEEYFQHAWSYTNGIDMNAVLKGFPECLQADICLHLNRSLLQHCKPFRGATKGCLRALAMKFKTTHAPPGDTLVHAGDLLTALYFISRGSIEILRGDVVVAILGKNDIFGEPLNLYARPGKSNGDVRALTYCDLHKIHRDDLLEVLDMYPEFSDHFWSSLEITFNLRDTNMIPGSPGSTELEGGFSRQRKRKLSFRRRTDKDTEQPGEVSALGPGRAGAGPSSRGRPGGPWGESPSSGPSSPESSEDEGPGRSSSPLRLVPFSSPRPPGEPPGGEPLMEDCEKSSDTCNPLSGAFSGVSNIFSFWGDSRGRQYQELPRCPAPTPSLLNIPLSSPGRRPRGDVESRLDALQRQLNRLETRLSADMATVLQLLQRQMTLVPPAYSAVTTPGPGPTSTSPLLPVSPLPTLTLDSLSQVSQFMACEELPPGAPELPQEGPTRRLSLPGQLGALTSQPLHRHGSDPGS

| SMILES | inhibition at 1 µM [1] [%] | inhibition at 1 µM [2] [%] | inhibition at 1 µM [3] [%] | inhibition at 1 µM [4] [%] | inhibition at 1 µM [5] [%] | inhibition at 1 µM [6] [%] | IC50 ([7]; Homo sapiens, MV4-11, 72 h) [µM] | IC50 ([11]; Homo sapiens, HepG2, 72 h) [µM] | IC50 ([8]; Homo sapiens, JeKo-1) [µM] | IC50 [9] [µM] | IC50 ([10]; Homo sapiens, 72 h) [µM] | further results |
| --- | --- | --- | --- | --- | --- | --- | --- | --- | --- | --- | --- | --- |
| CCCn1c(NCC(O)CN)nc2c([N+](=O)[O-])c(Br)c(Br)cc21 (stereo not shown) [Example 1X] | > 95 | 36 | > 95 | < 5 | 17 | 16 | 1.2 |  | 4.3 | 20.4 |  |  |
| CC(C)Cn1c(N2CCNCC2)nc2c([N+](=O)[O-])c(Br)c(Br)cc21 [Example 1N] | > 95 | 69 | > 95 | 55 | 39 | > 95 | 0.6 | 1.7 |  |  | 1.4 | IC50 ([12]; Homo sapiens, SW480): 1.2 µM; TGI (tumor growth inhibition) ([13]; 150 mg/Kg QD): 52%; ΔBW (body weight change) ([13]; 150 mg/Kg QD): −6.5%; TGI (tumor growth inhibition) ([13]; doses as in Table 3): up to 70%; IC50 ([9]; human, 3 min): 1.28 µM |
| CCn1c(NCCN)nc2c([N+](=O)[O-])c(Br)c(Br)cc21 [Example 1AL] |  |  |  |  |  |  |  |  |  | 2.42 |  | Pim-1 % INH (1 μM) [1]: >95%; Pim-2 % INH (1 μM) [2]: 42%; Pim-3 % INH (1 μM) [3]: >95%; Flt3wt % INH (1 μM) [4]: <5%; CDK2/E % INH (1 μM) [5]: <5%; DYRK1A % INH (1 μM) [6]: 49%; IC50 ([7]; 72 hours): 2.2 µM; IC50 ([10]; 72 hours): 5.3 µM; IC50 ([11]; 72 hours): 1.4 µM; IC50 [8]: 2.3 µM; IC50 [12]: 5.3 µM |
| CCn1c(NCC2CCCN2)nc2c([N+](=O)[O-])c(Br)c(Br)cc21 (stereo not shown) [Example 1AM] | 85 |  | 53 | < 5 | 12 |  | 2.6 | 2.7 | 2.8 |  | 8 | IC50 ([9]; human, 3 min): 1.46 µM |
| CC(C)n1c(N2CCC[C@H](N)C2)nc2c([N+](=O)[O-])c(Br)c(Br)cc21 [Example 1AP] |  |  |  |  |  |  |  |  |  | 1.82 |  | Pim-1 % INH (1 μM) [1]: >95%; Pim-2 % INH (1 μM) [2]: 80%; Pim-3 % INH (1 μM) [3]: 93%; Flt3wt % INH (1 μM) [4]: 56%; CDK2/E % INH (1 μM) [5]: 13%; DYRK1A % INH (1 μM) [6]: 70%; IC50 ([7]; 72 hours): 0.3 µM; IC50 ([10]; 72 hours): 2.4 µM; IC50 ([11]; 72 hours): 0.9 µM; IC50 [8]: 1.3 µM; IC50 [12]: 2.4 µM; TGI (tumor growth inhibition) ([13]; 150 mg/Kg QD): 99%; ΔBW (body weight change) ([13]; 150 mg/Kg QD): 11.7%; TGI (tumor growth inhibition) ([13]; doses as in Table 3): exceeding 97% |
| CCn1c(N2CCNCC2C)nc2c([N+](=O)[O-])c(Br)c(Br)cc21 (stereo not shown) [Example 1AD] | > 95 | 52 | > 95 | 18 | 26 | 72 | 0.5 | 0.6 | 0.4 | 1.42 | 0.5 | IC50 ([12]; Homo sapiens, SW480): 0.7 µM |
| CC(C)n1c(N[C@@H]2CCCNC2)nc2c([N+](=O)[O-])c(Br)c(Br)cc21 [Example 1AS] |  |  |  |  |  |  |  |  |  | 5.77 |  | IC50 ([7]; 72 hours): 0.6 µM; IC50 ([10]; 72 hours): 5.4 µM; IC50 ([11]; 72 hours): 1.4 µM; IC50 [8]: 1.1 µM |
| CC(C)Cn1c(NCC(O)CN)nc2c([N+](=O)[O-])c(Br)c(Br)cc21 (stereo not shown) [Example 1Y] | > 95 | 25 | 86 | < 5 | 6 |  | 1.4 |  | 3.4 | 16.9 |  |  |

Second part, led by results:

| inhibition at 1 µM [1] [%] | inhibition at 1 µM [2] [%] | inhibition at 1 µM [3] [%] | inhibition at 1 µM [4] [%] | inhibition at 1 µM [5] [%] | inhibition at 1 µM [6] [%] | IC50 ([7]; Homo sapiens, MV4-11, 72 h) [µM] | IC50 ([11]; Homo sapiens, HepG2, 72 h) [µM] | SMILES | IC50 ([8]; Homo sapiens, JeKo-1) [µM] | IC50 [9] [µM] | IC50 ([10]; Homo sapiens, 72 h) [µM] | further results |
| --- | --- | --- | --- | --- | --- | --- | --- | --- | --- | --- | --- | --- |
| 67 |  |  |  |  |  | 6.1 |  | NC(=O)Cn1c(N2CCNCC2)nc2c([N+](=O)[O-])c(Br)c(Br)cc21 [Example 2L, 2-[5,6-dibromo-4-nitro-2-(piperazin-1-yl)-1H-1,3-benzodiazol-1-yl]acetamide] |  |  |  | IC50 [14]: 3.1 µM |
| 76 |  |  |  |  | 95 | 2.7 | > 10 | CC(C)n1c(N2C[C@H]3C[C@@H]2CN3)nc2c([N+](=O)[O-])c(Br)c(Br)cc21 [Example 22AE, 5,6-dibromo-2-[(1R,4R)-2,5-diazabicyclo[2.2.1]heptan-2-yl]-4-nitro-1-(propan-2-yl)-1H-1,3-benzodiazole] |  |  |  | IC50 [14]: 2.8 µM |
|  |  |  |  |  |  | 2.8 | 7 | O=[N+]([O-])c1c(Br)c(Br)cc2c1nc(N1CCNCC1)n2CCN1CCNCC1 [Example 2C, 5,6-dibromo-4-nitro-2-(piperazin-1-yl)-1-[2-(piperazin-1-yl)ethyl]-1H-1,3-benzodiazole hydrochloride] | 6.2 | 2.5 |  |  |
| 82 | 14 | 92 | 11 | < 5 | 46 | 1.3 | 1.7 | CCn1c(N2CCNCC2)nc2c(C#N)c(Br)c(Br)cc21 [Example 8A, 5,6-dibromo-1-ethyl-2-(piperazin-1-yl)-1H-1,3-benzodiazole-4-carbonitrilehydrochloride] | 1.4 | 0.77 | 4.8 | IC50 ([12]; Homo sapiens, SW480): 4.7 µM |
| > 95 |  |  |  |  | 18 | 1.3 |  | NCCn1c(N2CC[C@H](N)C2)nc2c([N+](=O)[O-])c(Br)c(Br)cc21 [Example 3B, (3S)-1-[1-(2-aminoethyl)-5,6-dibromo-4-nitro-1H-1,3-benzodiazol-2-yl]pyrrolidin-3-amine] |  |  |  | IC50 [14]: 1.5 µM |

— patent US10174013B2, “Benzimidazole derivatives as kinase inhibitors” (SELVITA S.A., priority 2012, dated 2019)
